Test results published in patent publication US12624018B1, “Inhibitors of RIPK2 and medical uses thereof” (Odyssey Therapeutics, Inc., priority 2022, dated 2026).
pIC50: −log10 of the molar value. Like-named read-outs stand apart in the source and are kept apart here.

Assays:
human NOD2 signaling = test: Inhibition of human NOD2 signaling in HEK-Blue-hNOD2 cells (L18-MDP stimulated, SEAP reporter); type: cell-based
In short: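 HEK-Blue-hNOD2 cells (HEK293 with NOD2 and SEAP reporter), 12500/well, treated with 10-point 3-fold compound dilutions plus L18-MDP 0.5 ng/mL final, 24 h at 37 °C. Supernatant SEAP read with QUANTI-Blue after 3 h at 620 nm; IC50 by 4-parameter fit vs DMSO±L18-MDP controls.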

[1] = target: T1, RIPK2 and XIAP protein-protein interaction (Homo sapiens, UniProt O43353); test: Inhibition of the interaction of RIPK2 with XIAP (NanoBRET in HEK293T cells); type: cell-based; conditions: for pIC50: RIPK2 HaloTag / XIAP NanoLuc, read-out: NanoBRET Scaffolding IC50
T1 construct: the N-terminus of full-length RIPK2 was appended with the HaloTag fusion protein; expressed in transfected cells; host or cells: HEK293T
From the text: An assay measuring the RIPK2 and XIAP protein-protein interaction was generated using the NanoBRET protein:protein interaction system (Promega) which measures the energy transfer from a bioluminescent protein donor (NanoLuc fusion protein) to a fluorescent protein acceptor (Halotag fusion protein). In this assay, the C-terminus of full-length XIAP was appended with the NanoLuc fusion protein and the N-terminus of full-length RIPK2 was appended with the HaloTag fusion protein. Assay medium consisted of Opti-MEM I reduced serum medium with no phenol red plus 4% heat inactivated FBS. Transfection reagents were combined in a microfuge tube as follows: 400 μL of assay medium, 8 μL of vector with N-terminus of RIPK2 HaloTag fusion protein (vector concentration at 1 μg/μL), 0.8 μL of vector with C-terminus of XIAP NanoLuc fusion protein (vector concentration at 1 μg/μL), and 24 μL of FuGENE HD transfection reagent (Promega, catalogue number E2312). […] Test compounds were prepared into a 10 mM DMSO solution and were serially diluted into 10 points using a 3-fold dilution in a 384 well plate using a TECAN EV0200.
Method: HEK293T cells were transfected with the RIPK2 HaloTag fusion and XIAP NanoLuc fusion vectors in suspension. […] Transfection reagents were pre-mixed and incubated at room temperature for 30 minutes. Then the total transfection reagent mixture was added dropwise to the 16 mL cell suspension and mixed gently. 40 μL of the cells and transfection reagent suspension was plated into a white 384 well plate and incubated at 37° C. in a CO2 incubator for 24 hours. […] Lastly, a 3× solution of NanoBRET Nano-Glo substrate in Opti-MEM I reduced serum media (no phenol red; 20 μL total volume) was added to each well and incubated for 2-3 minutes at room temperature. The plate was then measured using 460 nm filter (donor emission) and 618 nm filter (acceptor emission) in an EnVision multimode plate reader (PerkinElmer). The NanoBRET ratio values were determined by dividing the acceptor emission value by the donor emission value for each sample.

RIPK2 enzyme = target: T2, RIPK2 enzyme (Homo sapiens, UniProt O43353); test: RIPK2 inhibition (ADP-Glo Kinase Assay); type: biochemical; conditions: RIPK2 5 nM, ATP 150 μM, MBP substrate, read-out: RIPK2 IC50
T2 construct: purchased Carna 09-128
In short: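 Human RIPK2 (5 nM) preincubated with compound 30 min at room temperature in 50 mM HEPES pH 7.5, 10 mM MgCl2, 2 mM DTT, 1 mM EGTA, 0.01% Brij-35, 0.05% BSA; native swine MBP as substrate. ADP formed quantified by ADP-Glo luminescence; percent inhibition relative to DMSO and no-enzyme controls.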

[2] = Homo sapiens, HEK-Blue hNOD2, HEK-Blue-hNOD2 cells, NOD2 ligand stimulation, SEAP reporter, read-out: hNOD2 IC50
[3] = HEK-Blue-hNOD2 cells, NOD2 ligand stimulation, SEAP reporter, read-out: hNOD2 IC50

T2 sequence (O43353 1-299 limits assumed): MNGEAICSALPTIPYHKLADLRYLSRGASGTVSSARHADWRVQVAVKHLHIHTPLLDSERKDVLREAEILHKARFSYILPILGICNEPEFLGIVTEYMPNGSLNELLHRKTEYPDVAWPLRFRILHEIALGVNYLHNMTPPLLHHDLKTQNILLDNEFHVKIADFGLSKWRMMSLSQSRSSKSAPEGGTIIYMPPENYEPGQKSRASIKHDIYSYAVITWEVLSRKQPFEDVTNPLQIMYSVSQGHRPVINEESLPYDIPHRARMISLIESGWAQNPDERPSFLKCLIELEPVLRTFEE
T1 sequence (O43353 whole entry, the tested form may be a part): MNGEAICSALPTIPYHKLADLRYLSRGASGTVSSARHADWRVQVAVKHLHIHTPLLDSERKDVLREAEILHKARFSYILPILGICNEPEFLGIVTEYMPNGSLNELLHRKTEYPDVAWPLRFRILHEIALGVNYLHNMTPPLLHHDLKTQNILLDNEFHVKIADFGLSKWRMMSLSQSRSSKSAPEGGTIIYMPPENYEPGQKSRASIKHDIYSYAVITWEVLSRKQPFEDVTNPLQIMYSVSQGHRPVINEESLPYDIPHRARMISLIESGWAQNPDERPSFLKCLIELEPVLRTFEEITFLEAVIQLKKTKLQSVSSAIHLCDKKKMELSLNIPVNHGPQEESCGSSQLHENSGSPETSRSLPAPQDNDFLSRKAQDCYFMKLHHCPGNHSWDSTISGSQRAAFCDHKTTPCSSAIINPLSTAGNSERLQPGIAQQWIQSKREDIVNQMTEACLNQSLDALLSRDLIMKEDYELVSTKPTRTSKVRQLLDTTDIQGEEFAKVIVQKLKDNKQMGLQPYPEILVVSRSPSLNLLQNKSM

Row | pIC50 (human NOD2 signaling; [2]) | pIC50 [1] | pIC50 (RIPK2 enzyme) | pIC50 (human NOD2 signaling; [3]) | pIC50 (human NOD2 signaling; Homo sapiens, HEK-Blue hNOD2, 24 h, HEK-Blue-hNOD2 cells, L18-MDP 0.5 ng/mL, 24 h, read-out: hNOD2 inhibition IC50) | inhibition of the RIPK2 and XIAP protein-protein interaction ([1]; NanoBRET) | Compound
1 | 8.60 | 7.32 | > 8.60 | – | – | – | Cc1cc(CC(=O)Nc2cnn(C(C)(C)C)c2)c(F)cc1Oc1ccnc2ccc(S(=N)(=O)C3CC3)cc12 (single isomer, unassigned) [Compound 466, N-(1-(tert-butyl)-1H-pyrazol-4-yl)-2-(4-((6-(cyclopropane-sulfonimidoyl)quinolin-4-yl)oxy)-2-fluoro-5-methylphenyl) acetamide]
2 | – | 7.52 | > 8.60 | 8.77 | – | – | Cc1cc(CC(=O)Nc2cnn(C(C)(C)C)c2)c(F)cc1Oc1ccnc2ccc(S(=N)(=O)C3CC3)cc12 (single isomer, unassigned) [Compound 467, N-(1-(tert-butyl)-1H-pyrazol-4-yl)-2-(4-((6-(cyclopropane-sulfonimidoyl)quinolin-4-yl)oxy)-2-fluoro-5-methylphenyl) acetamide]
3 | 8.62 | 7.24 | > 8.60 | – | – | – | [2H]C([2H])([2H])NC(=O)c1ccc2nccc(Oc3cc(F)c(CC(=O)Nc4cnn(C56CC(C5)C6)c4)cc3C([2H])([2H])[2H])c2c1 (single isomer, unassigned) [Compound 512, 4-(4-(2-((1-(bicyclo[1.1.1]pentan-1-yl)-1H-pyrazol-4-yl)amino)-2-oxoethyl)-5-fluoro-2-(methyl-d3)phenoxy)-N-(methyl-d3)quinoline-6-carboxamide]
4 | 10.00 | 8.14 | > 8.60 | – | – | – | [2H]C([2H])([2H])NC(=O)c1ccc2nccc(Oc3cc(F)c(CC(=O)Nc4cnn(C(C)(C)C)c4)c(F)c3C)c2c1 (single isomer, unassigned) [Compound 555, 4-(4-(2-((1-(tert-butyl)-1H-pyrazol-4-yl)amino)-2-oxoethyl)-3,5-difluoro-2-methylphenoxy)-N-(methyl-d3)quinoline-6-carboxamide]
5 | 9.05 | – | > 8.60 | – | – | – | CNC(=O)c1cc2c(Oc3ccc(CC(=O)Nc4cnn(C(C)(C)C)c4)c(C#N)c3C)ccnc2cc1F [Compound 611, 4-(4-(2-((1-(tert-butyl)-1H-pyrazol-4-yl)amino)-2-oxoethyl)-3-cyano-2-methylphenoxy)-7-fluoro-N-methylquinoline-6-carboxamide]
6 | 8.34 | – | > 8.60 | – | – | – | CNC(=O)c1cc2c(Oc3ccc(CC(=O)Nc4cnn(C(C)(C)C)c4)nc3C)ccnc2cc1F [Compound 613, 4-((6-(2-((1-(tert-butyl)-1H-pyrazol-4-yl)amino)-2-oxoethyl)-2-methylpyridin-3-yl)oxy)-7-fluoro-N-methylquinoline-6-carboxamide]
7 | 8.43 | – | > 8.60 | – | – | – | [2H]C([2H])([2H])NC(=O)c1cc2c(Oc3ccc(CC(=O)Nc4cnn(C(C)(C)C)c4)nc3C)ccnc2cc1F [Compound 614, 4-((6-(2-((1-(tert-butyl)-1H-pyrazol-4-yl)amino)-2-oxoethyl)-2-methylpyridin-3-yl)oxy)-7-fluoro-N-(methyl-d3)quinoline-6-carboxamide]
8 | 8.70 | – | > 8.60 | – | – | – | [2H]C([2H])([2H])C(n1cc(NC(=O)Cc2cc(C)c(Oc3ccnc4ccc(C(=O)NC)cc34)cc2F)cn1)(C([2H])([2H])[2H])C([2H])([2H])[2H] [Compound 622, 4-(5-fluoro-2-methyl-4-(2-((1-(2-(methyl-d3)propan-2-yl-1,1,1,3,3,3-d6)-1H-pyrazol-4-yl)amino)-2-oxoethyl)phenoxy)-N-methylquinoline-6-carboxamide]

The remaining lines, values behind:

Row | Compound | pIC50 (human NOD2 signaling; [2]) | pIC50 [1] | pIC50 (RIPK2 enzyme) | pIC50 (human NOD2 signaling; [3]) | pIC50 (human NOD2 signaling; Homo sapiens, HEK-Blue hNOD2, 24 h, HEK-Blue-hNOD2 cells, L18-MDP 0.5 ng/mL, 24 h, read-out: hNOD2 inhibition IC50) | inhibition of the RIPK2 and XIAP protein-protein interaction ([1]; NanoBRET)
9 | Cc1cc(CC(=O)Nc2cnn(C34CC(C3)C4)c2)ccc1Oc1ccnc2ccc(S(=N)(=O)C3CC3)cc12 (single isomer, unassigned) [Compound 529, N-(1-(bicyclo[1.1.1]pentan-1-yl)-1H-pyrazol-4-yl)-2-(4-((6-(cyclopropanesul-fonimidoyl)quinolin-4-yl)oxy)-3-methylphenyl) acetamide] | 7.84 | 7.12 | > 8.60 | – | – | –
10 | Cc1cc(CC(=O)Nc2cnn(C34CC(C3)C4)c2)ccc1Oc1ccnc2ccc(S(=N)(=O)C3CC3)cc12 (single isomer, unassigned) [Compound 530, N-(1-(bicyclo[1.1.1]pentan-1-yl)-1H-pyrazol-4-yl)-2-(4-((6-(cyclopropanesul-fonimidoyl)quinolin-4-yl)oxy)-3-methylphenyl) acetamide] | – | 7.03 | > 8.60 | 7.67 | – | –
11 | Cc1cc(CC(=O)Nc2cnn(C(C)(C)C)c2)ccc1Oc1ccnc2ccc(S(=N)(=O)C(C)C)cc12 (single isomer, unassigned) [Compound 547, N-(1-(tert-butyl)-1H-pyrazol-4-yl)-2-(3-methyl-4-((6-(propan-2-ylsulfonimidoyl)quinolin-4-yl)oxy)phenyl) acetamide] | 8.89 | 6.82 | > 8.60 | – | – | –
12 | Cc1cc(CC(=O)Nc2cnn(C(C)(C)C)c2)ccc1Oc1ccnc2ccc(S(=N)(=O)C(C)C)cc12 (single isomer, unassigned) [Compound 548, N-(1-(tert-butyl)-1H-pyrazol-4-yl)-2-(3-methyl-4-((6-(propan-2-ylsulfonimidoyl)quinolin-4-yl)oxy)phenyl) acetamide] | – | 6.97 | > 8.60 | 9.05 | – | –
13 | Cc1cc(CC(=O)Nc2cnn(C(C)(C)C)c2)ccc1Oc1ccnc2ccc(S(=N)(=O)C3CCC3)cc12 (single isomer, unassigned) [Compound 551, N-(1-(tert-butyl)-1H-pyrazol-4-yl)-2-(4-((6-(cyclobutanesulf-onimidoyl)quinolin-4-yl)oxy)-3-methylphenyl) acetamide] | 8.77 | 7.06 | > 8.60 | – | – | –
14 | Cc1cc(CC(=O)Nc2cnn(C(C)(C)C)c2)ccc1Oc1ccnc2ccc(S(=N)(=O)C3CCC3)cc12 (single isomer, unassigned) [Compound 552, N-(1-(tert-butyl)-1H-pyrazol-4-yl)-2-(4-((6-(cyclobutane-sulfonimidoyl)quinolin-4-yl)oxy)-3-methylphenyl) acetamide] | – | 7.22 | > 8.60 | 8.77 | – | –
15 | Cc1nc(CC(=O)Nc2cnn(C(C)(C)C)c2)ccc1Oc1ccnc2cc(F)c(C(N)=O)cc12 [Compound 612, 4-((6-(2-((1-(tert-butyl)-1H-pyrazol-4-yl)amino)-2-oxoethyl)-2-methylpyridin-3-yl)oxy)-7-fluoroquinoline-6-carboxamide] | 8.44 | – | > 8.60 | – | – | –
16 | Cc1cc(CC(=O)Nc2cc(C(C)(C)C)[nH]n2)cc(F)c1Oc1ccnc2cc(F)c(C(N)=O)cc12 [Compound 617, 4-(4-(2-((5-(tert-butyl)-1H-pyrazol-3-yl)amino)-2-oxoethyl)-2-fluoro-6-methylphenoxy)-7-fluoroquinoline-6-carboxamide] | 8.96 | – | > 8.60 | – | – | –
17 | Cc1cc(CC(=O)Nc2cc(C(C)(C)C)[nH]n2)cc(C)c1Oc1ccnc2cc(F)c(C(N)=O)cc12 [Compound 618, 4-(4-(2-((5-(tert-butyl)-1H-pyrazol-3-yl)amino)-2-oxoethyl)-2,6-dimethylphenoxy)-7-fluoroquinoline-6-carboxamide] | 9.52 | – | > 8.60 | – | – | –
18 | CC(C)(C)c1cc(NC(=O)Cc2ccc(Oc3ccnc4cc(F)c(C(N)=O)cc34)c(C(F)F)c2)n[nH]1 [Compound 619, 4-(4-(2-((5-(tert-butyl)-1H-pyrazol-3-yl)amino)-2-oxoethyl)-2-(difluoromethyl)phenoxy)-7-fluoroquinoline-6-carboxamide] | 8.85 | – | > 8.60 | – | – | –
19 | CC(C)(C)S(=O)(=O)c1cc2c(Nc3ccc4scnc4c3)ncnc2cc1OCCOP(=O)(O)O [GSK 2983559, reference compound] | – | – | – | – | < 5.00 | no inhibition
